Results from patent publication US20110229892A1, “METHOD FOR PREDICTING A PATIENT'S RESPONSIVENESS TO ANTI-FOLATE THERAPY” (priority 2008, published 2011).
Where two headings read alike, the source gives them in different places.

Experiments:
[1] = test system: CEM-MTX^R5P cells; assay: Antifolate growth inhibition assay (XTT), MTX-resistant subline; format: cell-based, human; conditions: for IC50: Homo sapiens, 72 h, read-out: IC50 growth inhibition
Method: (§1) Tissue Culture: The human T-cell lymphocytic leukemia lines CCRF-CEM and Molt-4 as well as their antifolate-resistant sublines CEM-MTX^R5P, CEM-MTX^R10, CEM-7OH MTX and Molt-4-7OH MTX were maintained in RPMI-1640 medium (GIBCO) containing 2.3 μM folic acid supplemented with 10% fetal bovine serum, 2 mM glutamine, 100 units/ml penicillin G and 100 μg/ml streptomycin sulfate (Biological Industries, Beth-Haemek, Israel). The MTX-resistant sublines MTX^R5P and MTX^R10 were established by exposure of parental CCRF-CEM cells to 6 cycles each of 24 hr pulse of 5 or 10 μM MTX, respectively (Sigma) as follows: after an initial 24 hr pulse exposure of parental CCRF-CEM cells to 5 or 10 μM MTX at 37° C., cells were washed once with drug-free growth medium, adjusted to 3×10^5 cells/ml and allowed to grow for 1-2 weeks. Thereafter, a maintenance treatment of 24 hr pulses of MTX was performed once a month. CEM-7OH MTX and Molt-4-7OH MTX were established and maintained as previously described [Fotoohi K, et al., Blood. 2004; 104:4194-4201].
(§2) Antifolate growth inhibition assay: Parental cells and their antifolate-resistant sublines as well as FPGS-transfected cells were first grown in antifolate-free growth medium for 5-7 cell doublings. Thereafter, cells were seeded in 96-well plates (3×10^4/well) in growth medium (100 μl/well) containing various concentrations of the different antifolates (e.g. MTX, ZD1694 and ZD9331). After 3 days of incubation at 37° C., viable cell numbers were determined using the Cell Proliferation Kit (XTT) (Biological Industries). Percent inhibition of cell growth was calculated relative to untreated controls. Results presented are means of at least three independent experiments.

[2] = test system: CCRF-CEM WT cells; assay: Antifolate growth inhibition assay (XTT), parental cells; format: cell-based; conditions: Homo sapiens, 72 h, read-out: IC50 growth inhibition
Method: as §1, §2

[3] = test system: CEM-MTX^R10 cells; assay: Antifolate growth inhibition assay (XTT), MTX-resistant subline; format: cell-based; conditions: Homo sapiens, 72 h, read-out: IC50 growth inhibition
Method: as §1, §2

[4] = target: T1, RFC (SLC19A1) (Homo sapiens, UniProt P41440); assay: [^3H]MTX transport assay; format: cell-based; conditions: 2 μM [3H]MTX, 3 min, 37° C.
T1 construct: endogenous in cells; host or cells: CCRF-CEM parental cells and antifolate-resistant sublines (MTX^R5P, CEM/MTX^R10)
T1 sequence (P41440 1-591): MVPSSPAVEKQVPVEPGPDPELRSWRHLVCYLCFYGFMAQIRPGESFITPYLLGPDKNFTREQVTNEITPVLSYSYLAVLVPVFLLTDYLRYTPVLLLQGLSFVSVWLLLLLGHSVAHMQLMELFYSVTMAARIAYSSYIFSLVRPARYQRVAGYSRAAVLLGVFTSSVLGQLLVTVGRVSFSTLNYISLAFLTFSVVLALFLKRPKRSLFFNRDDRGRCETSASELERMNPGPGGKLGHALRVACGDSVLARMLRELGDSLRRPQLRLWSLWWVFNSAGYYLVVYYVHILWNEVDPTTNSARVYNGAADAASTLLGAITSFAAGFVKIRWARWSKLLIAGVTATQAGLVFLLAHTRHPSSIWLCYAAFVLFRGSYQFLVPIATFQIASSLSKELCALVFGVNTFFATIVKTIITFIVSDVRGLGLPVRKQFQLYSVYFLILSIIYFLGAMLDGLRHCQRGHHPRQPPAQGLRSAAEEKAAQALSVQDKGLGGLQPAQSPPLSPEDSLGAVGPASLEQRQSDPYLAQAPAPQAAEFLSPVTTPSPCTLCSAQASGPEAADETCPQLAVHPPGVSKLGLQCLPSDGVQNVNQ
Method: [^3H]MTX transport assay: [^3H]MTX influx rates were determined as previously described [Jansen Get al., J Biol Chem. 1990; 265:18272-18277]. Briefly, cells (2×10^7) were washed with ice-cold HBS (20 mM HEPES, 140 mM NaCl, 5 mM KCl, 2 mM MgCl2, and 5 mM glucose, at pH 7.4) and incubated at 37° C. for 3 min in HBS containing 2 μM [3′,5′,7-^3H]-Methotrexate (0.555 TBq/mmol; […]; Moravek Biochemicals, Brea, Calif.). Transport controls contained a 500-fold excess (1 mM) of unlabeled MTX. Transport was stopped by the addition of 10 ml of ice-cold HBS. Then, the cell suspension was centrifuged, washed with ice-cold HBS and suspended in water for scintillation counting.

[5] = test system: MTX^R10 cells overexpressing normal FPGS (pcDNA3/hFPGS transfectant); assay: Antifolate cytotoxicity in FPGS-transfected cells; format: cell-based, human; conditions: MTX^R10 cells transfected with normal FPGS, compared with parental cells
Method: as §2
Expression Vectors: pcDNA3/hFPGS harboring the full-length human FPGS cDNA was provided. […]
Stable Transfections with hFPGS Expression Constructs: Exponentially growing cells (i.e. CCRF-CEM and)CEM-MTX^R10) were harvested by centrifugation and stably transfected by electroporation (1000 μF, 234V) with 10 μg of the vectors pcDNA3.1, pIRES2-EGFP, pcDNA3/hFPGS or pIRES/FPGSΔexon10. […] Stable transfectants obtained after 4 weeks of G-418 selection were analyzed for FPGS mRNA levels by Northern blots as detailed below and used for further analyses.

[6] = CEM-MTX^R5P, 3 days incubation, XTT
[7] = CCRF-CEM WT, 3 days incubation, XTT
[8] = CEM-MTX^R10, 3 days incubation, XTT
[9] = MTX^R5P cells vs parental cells

SMILES	IC50 [1, 6]	IC50 [2, 7]	IC50 [3, 8]	MTX Influx ([4]; CCRF-CEM WT (parental reference))	MTX Influx ([4]; CEM-MTX^R5P, relative to parental cells)	MTX Influx ([4]; CEM-MTX^R5P, relative to parental cells, listed as [^3H]MTX)	MTX Influx ([4]; CEM-MTX^R10, relative to parental cells)	IC50 [1]	increased sensitivity relative to parental cells [1, 9]	IC50 ([2]; CCRF-CEM)	IC50 [3]	sensitivity after ectopic overexpression of normal FPGS [5]	resistance relative to parental CCRF-CEM cells [1, 9]
CN(Cc1cnc2nc(N)nc(N)c2n1)c1ccc(C(=O)N[C@@H](CCC(=O)O)C(=O)O)cc1 [MTX, methotrexate]	23.1 ± 2 nM	25.7 ± 2.1 nM	28.2 ± 2.9 nM	100%	50 ± 5%	50%	91 + 6%						
C#CCN(Cc1cc2c(=O)[nH]c(C)nc2cc1C)c1ccc(C(=O)N[C@@H](CCc2nnn[nH]2)C(=O)O)c(F)c1 [ZD9331, plevitrexed]								13.9 ± 1.7 nM	2 fold	28.6 ± 2.3 nM	40.8 ± 4.1 nM		
Cc1nc2ccc(CN(C)c3ccc(C(=O)N[C@@H](CCC(=O)O)C(=O)O)s3)cc2c(=O)[nH]1 [ZD1964, raltitrexed]	> 300000 nM	6.06 ± 0.42 nM	110 ± 9.8 nM									fully restored parental cell sensitivity	50,000 fold
